Measured values: ChEMBL document CHEMBL5528051, “Chelerythrine Chloride is an Affinity-Labeling Inactivator of CYP3A4 by Modification of Cysteine239” (J Med Chem, 2024)

Columns and labels:
CYP3A4 [1] = molecular target: T1, CYP3A4 (Homo sapiens, UniProt P08684); test: Inhibition of CYP3A4 (unknown origin) assessed as remaining activity at 50 uM measured immediately (reference value: 100 %); assay type: ADME; details: read-out: Activity
CYP3A4 [2] = molecular target: T1, CYP3A4; test: Inhibition of CYP3A4 (unknown origin) assessed as remaining activity at 50 uM measured 15 mins before dialysis (reference value: 87.2 +/- 2.3 %); assay type: ADME; details: read-out: Activity
CYP2B6 = molecular target: T2, CYP2B6 (Homo sapiens, UniProt P20813); test: Inhibition of human CYP2B6 assessed as remaining activity at 50 uM using bupropion.HCl as substrate preincubated for 3 mins followed by substrate addition and measured upto 15 mins by LC-MS/MS analysis; assay type: ADME; details: buffer, probe bupropion.HCl, time < 18 min, read-out: Activity
T2 sequence (P20813 whole entry): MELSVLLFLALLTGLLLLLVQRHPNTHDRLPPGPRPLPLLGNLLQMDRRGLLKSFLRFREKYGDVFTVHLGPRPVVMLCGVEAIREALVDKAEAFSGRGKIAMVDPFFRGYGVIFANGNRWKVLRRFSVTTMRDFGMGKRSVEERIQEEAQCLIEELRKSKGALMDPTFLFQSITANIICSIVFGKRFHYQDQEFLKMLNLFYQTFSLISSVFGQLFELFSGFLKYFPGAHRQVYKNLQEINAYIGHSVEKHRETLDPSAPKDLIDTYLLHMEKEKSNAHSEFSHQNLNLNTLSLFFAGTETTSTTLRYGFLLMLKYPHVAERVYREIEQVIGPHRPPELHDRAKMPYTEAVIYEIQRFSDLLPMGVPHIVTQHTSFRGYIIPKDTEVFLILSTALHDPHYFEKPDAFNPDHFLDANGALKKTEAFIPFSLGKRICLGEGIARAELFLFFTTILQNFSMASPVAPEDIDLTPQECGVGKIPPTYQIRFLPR

CYP3A4 [3] = molecular target: T1, CYP3A4; test: Inhibition of CYP3A4 (unknown origin) assessed as remaining activity at 50 uM measured 15 mins after dialysis (reference value: 53.8 +/- 2.9 %); assay type: ADME; details: read-out: Activity
Cytochrome P450 3A4 [4] = molecular target: T3, Cytochrome P450 3A4 (Homo sapiens, UniProt P08684); test: Inhibition of CYP3A4 (unknown origin) at 50 uM incubated for 5 to 15 mins in absence of NADPH by LC-MS/MS analysis; assay type: ADME; details: time 5-15 min
T3 sequence (P08684 whole entry): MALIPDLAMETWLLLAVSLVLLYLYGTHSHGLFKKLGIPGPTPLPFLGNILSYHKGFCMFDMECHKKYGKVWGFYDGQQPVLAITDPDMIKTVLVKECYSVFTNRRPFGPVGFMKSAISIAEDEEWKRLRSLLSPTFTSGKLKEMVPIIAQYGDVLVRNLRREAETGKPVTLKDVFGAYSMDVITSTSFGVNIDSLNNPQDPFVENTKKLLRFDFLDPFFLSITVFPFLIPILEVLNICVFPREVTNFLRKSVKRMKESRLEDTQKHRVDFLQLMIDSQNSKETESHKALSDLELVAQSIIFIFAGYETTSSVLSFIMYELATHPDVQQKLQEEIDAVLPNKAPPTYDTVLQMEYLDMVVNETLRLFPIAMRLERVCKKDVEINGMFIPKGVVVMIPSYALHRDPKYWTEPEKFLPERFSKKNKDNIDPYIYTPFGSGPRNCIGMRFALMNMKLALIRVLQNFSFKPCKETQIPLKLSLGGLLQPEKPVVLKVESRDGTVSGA

Cytochrome P450 3A4 [5] = molecular target: T3, Cytochrome P450 3A4; test: Inhibition of CYP3A4 (unknown origin) at 10 to 50 uM by LC-MS/MS analysis; assay type: ADME; details: TDE = time-dependent effect, dose lower 10 µM, time lower 5 min, dose upper 50 µM, time upper 15 min
CYP3A4 [6] = molecular target: T1, CYP3A4; test: Inhibition of human CYP3A4 assessed as remaining activity at 50 uM using testosterone as substrate preincubated for 3 mins followed by substrate addition and measured upto 15 mins by LC-MS/MS analysis (reference value: 85.4 +/- 3.42 %); assay type: ADME; details: probe testosterone, time < 18 min, read-out: Activity
CYP2E1 = CYP2E1 (Homo sapiens, UniProt P05181); test: Inhibition of human CYP2E1 assessed as remaining activity at 50 uM using 4-nitrophenol as substrate preincubated for 3 mins followed by substrate addition and measured upto 15 mins by LC-MS/MS analysis; assay type: ADME; details: probe 4-nitrophenol, time < 18 min, read-out: Activity
CYP2E1, sequence (P05181 whole entry): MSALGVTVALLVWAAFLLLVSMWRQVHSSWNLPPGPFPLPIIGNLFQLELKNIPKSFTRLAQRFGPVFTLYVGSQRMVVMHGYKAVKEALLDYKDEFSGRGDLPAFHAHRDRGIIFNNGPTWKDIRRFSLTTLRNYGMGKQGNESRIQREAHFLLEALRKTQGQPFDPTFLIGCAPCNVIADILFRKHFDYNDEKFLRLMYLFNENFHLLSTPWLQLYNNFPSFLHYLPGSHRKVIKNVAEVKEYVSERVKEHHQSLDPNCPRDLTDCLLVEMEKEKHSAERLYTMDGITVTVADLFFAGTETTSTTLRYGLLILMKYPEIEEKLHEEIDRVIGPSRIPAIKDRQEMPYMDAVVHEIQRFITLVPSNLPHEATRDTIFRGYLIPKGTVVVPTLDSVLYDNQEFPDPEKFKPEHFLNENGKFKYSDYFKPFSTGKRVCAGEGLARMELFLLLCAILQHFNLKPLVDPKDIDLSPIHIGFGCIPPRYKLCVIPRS

[7] = Chemical reactivity of compound to serine in PBS at pH 7.4 by UV spectrometric assay; assay type: physicochemical; details: buffer
CYP3A4 [8] = molecular target: T1, CYP3A4; test: Inhibition of CYP3A4 (unknown origin) assessed as remaining activity at 50 uM incubated for 15 mins in presence of 2 mM NAC; assay type: ADME; details: read-out: Activity
CYP1A2 = molecular target: T4, CYP1A2 (Homo sapiens, UniProt P05177); test: Inhibition of human CYP1A2 assessed as remaining activity at 50 uM using phenacetin as substrate preincubated for 3 mins followed by substrate addition and measured upto 15 mins by LC-MS/MS analysis (reference value: 85.4 +/- 3.42 %); assay type: ADME; details: probe phenacetin, time < 18 min, read-out: Activity
T4 sequence (P05177 whole entry): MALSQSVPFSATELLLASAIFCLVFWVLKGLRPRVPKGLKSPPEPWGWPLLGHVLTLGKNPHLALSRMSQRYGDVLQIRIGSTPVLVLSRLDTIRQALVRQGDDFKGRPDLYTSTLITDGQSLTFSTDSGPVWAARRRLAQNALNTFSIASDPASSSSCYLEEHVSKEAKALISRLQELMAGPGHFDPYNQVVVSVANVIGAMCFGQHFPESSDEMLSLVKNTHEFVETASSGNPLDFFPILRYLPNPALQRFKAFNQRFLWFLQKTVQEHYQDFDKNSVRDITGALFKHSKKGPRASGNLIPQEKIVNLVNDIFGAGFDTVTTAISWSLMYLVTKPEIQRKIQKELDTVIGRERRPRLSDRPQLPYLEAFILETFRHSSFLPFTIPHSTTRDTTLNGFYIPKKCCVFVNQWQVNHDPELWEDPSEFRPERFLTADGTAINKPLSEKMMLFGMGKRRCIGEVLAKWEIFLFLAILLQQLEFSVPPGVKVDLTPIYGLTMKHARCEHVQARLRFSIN

CYP2D6 = CYP2D6 (Homo sapiens, UniProt P10635); test: Inhibition of human CYP2D6 assessed as remaining activity at 50 uM using dextromethorphan as substrate preincubated for 3 mins followed by substrate addition and measured upto 15 mins by LC-MS/MS analysis; assay type: ADME; details: probe dextromethorphan, time < 18 min, read-out: Activity
CYP2D6, sequence (P10635 whole entry): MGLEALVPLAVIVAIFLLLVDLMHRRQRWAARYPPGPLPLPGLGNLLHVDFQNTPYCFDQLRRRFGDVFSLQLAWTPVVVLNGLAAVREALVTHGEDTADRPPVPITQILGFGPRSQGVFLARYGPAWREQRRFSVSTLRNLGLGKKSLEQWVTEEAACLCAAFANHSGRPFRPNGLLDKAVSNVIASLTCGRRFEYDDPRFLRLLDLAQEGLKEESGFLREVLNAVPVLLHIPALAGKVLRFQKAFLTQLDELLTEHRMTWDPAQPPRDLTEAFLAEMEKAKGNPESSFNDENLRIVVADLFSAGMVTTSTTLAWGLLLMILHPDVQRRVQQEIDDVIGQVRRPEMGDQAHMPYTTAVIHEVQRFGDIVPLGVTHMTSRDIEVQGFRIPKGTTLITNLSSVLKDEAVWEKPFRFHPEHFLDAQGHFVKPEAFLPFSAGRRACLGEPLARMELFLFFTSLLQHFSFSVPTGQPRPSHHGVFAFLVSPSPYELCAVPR

Cytochrome P450 3A4 [9] = molecular target: T3, Cytochrome P450 3A4; test: Inhibition of wild type CYP3A4 (unknown origin) expressed in CHO cells using midazolam as substrate incubated for 6 hrs by LC-MS/MS analysis; assay type: ADME, cell-based
CYP3A5 = CYP3A5 (Homo sapiens, UniProt P20815); test: Inhibition of human CYP3A5 assessed as remaining activity at 50 uM using testosterone as substrate preincubated for 3 mins followed by substrate addition and measured upto 15 mins by LC-MS/MS analysis; assay type: ADME; details: probe testosterone, time < 18 min, read-out: Activity
CYP3A5, sequence (P20815 whole entry): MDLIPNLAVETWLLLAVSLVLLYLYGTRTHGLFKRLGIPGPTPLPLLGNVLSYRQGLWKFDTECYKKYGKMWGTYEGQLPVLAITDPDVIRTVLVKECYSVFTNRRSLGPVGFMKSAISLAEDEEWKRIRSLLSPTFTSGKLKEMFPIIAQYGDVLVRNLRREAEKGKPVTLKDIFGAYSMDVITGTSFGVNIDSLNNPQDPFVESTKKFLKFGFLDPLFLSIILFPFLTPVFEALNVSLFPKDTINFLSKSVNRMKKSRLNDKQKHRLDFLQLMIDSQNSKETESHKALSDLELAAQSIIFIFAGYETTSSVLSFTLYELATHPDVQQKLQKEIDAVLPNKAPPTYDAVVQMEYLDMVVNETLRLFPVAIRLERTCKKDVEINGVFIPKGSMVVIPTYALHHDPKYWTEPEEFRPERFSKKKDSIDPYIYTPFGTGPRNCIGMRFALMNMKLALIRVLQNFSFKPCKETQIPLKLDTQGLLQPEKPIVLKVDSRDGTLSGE

CYP2C9 = CYP2C9 (Homo sapiens, UniProt P11712); test: Inhibition of human CYP2C9 assessed as remaining activity at 50 uM using diclofenac sodium as substrate preincubated for 3 mins followed by substrate addition and measured upto 15 mins by LC-MS/MS analysis; assay type: ADME; details: probe diclofenac sodium, time < 18 min, read-out: Activity
CYP2C9, sequence (P11712 whole entry): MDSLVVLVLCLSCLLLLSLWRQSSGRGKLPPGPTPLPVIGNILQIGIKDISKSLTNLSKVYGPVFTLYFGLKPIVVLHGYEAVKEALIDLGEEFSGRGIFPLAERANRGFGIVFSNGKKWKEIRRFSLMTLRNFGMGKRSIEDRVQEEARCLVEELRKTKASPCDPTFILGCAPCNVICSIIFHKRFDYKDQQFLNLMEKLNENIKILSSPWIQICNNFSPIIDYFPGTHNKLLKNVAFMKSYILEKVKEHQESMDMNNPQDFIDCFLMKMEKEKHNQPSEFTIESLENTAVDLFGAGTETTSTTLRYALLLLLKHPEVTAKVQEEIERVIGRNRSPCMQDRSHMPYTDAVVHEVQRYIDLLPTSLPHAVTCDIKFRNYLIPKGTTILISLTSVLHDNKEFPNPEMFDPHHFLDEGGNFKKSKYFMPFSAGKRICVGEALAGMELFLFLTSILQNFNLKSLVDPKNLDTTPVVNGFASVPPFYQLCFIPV

Cytochrome P450 3A4 [10] = molecular target: Cytochrome P450 3A4 (Homo sapiens, UniProt P08684, C239S); test: Inhibition of CYP3A4 C239S mutant (unknown origin) expressed in CHO cells using midazolam as substrate incubated for 6 hrs by LC-MS/MS analysis; assay type: ADME, cell-based
Cytochrome P450 3A4 (Homo sapiens, UniProt P08684, C239S), sequence (P08684 2-503 C239S limits assumed): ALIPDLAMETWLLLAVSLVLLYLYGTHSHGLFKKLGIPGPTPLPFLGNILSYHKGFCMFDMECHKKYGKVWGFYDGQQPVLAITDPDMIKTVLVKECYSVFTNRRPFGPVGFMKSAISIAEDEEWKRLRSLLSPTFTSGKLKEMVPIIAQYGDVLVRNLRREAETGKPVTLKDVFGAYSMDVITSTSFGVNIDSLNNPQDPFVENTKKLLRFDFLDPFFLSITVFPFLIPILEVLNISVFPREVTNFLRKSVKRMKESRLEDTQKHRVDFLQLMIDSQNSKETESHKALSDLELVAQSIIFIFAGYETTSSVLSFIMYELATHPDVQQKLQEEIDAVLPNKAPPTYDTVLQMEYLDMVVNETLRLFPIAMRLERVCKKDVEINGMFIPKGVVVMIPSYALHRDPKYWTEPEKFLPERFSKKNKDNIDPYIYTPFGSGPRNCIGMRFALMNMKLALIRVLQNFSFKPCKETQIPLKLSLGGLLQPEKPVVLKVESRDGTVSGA

[11] = Chemical reactivity of compound to NAC in PBS at pH 7.4 by UV spectrometric assay; assay type: physicochemical; details: buffer
CYP3A4 [12] = molecular target: T1, CYP3A4; test: Inhibition of CYP3A4 (unknown origin) assessed as remaining activity at 50 uM incubated for 15 mins in presence of 20 mM NAC; assay type: ADME; details: read-out: Activity
Cytochrome P450 3A4 [13] = molecular target: T3, Cytochrome P450 3A4; test: Inhibition of CYP3A4 (unknown origin) at 50 uM preincubated for 3 mins followed by NADPH addition and measured after 5 to 15 mins by LC-MS/MS analysis; assay type: ADME; details: time 8-18 min
Cytochrome P450 3A4 [14] = molecular target: T3, Cytochrome P450 3A4; test: Inhibition of CYP3A4 (unknown origin) incubated for 5 to 15 mins by LC-MS/MS analysis; assay type: ADME; details: at 10 to 50 µM, dose lower 10 µM, time lower 5 min, dose upper 50 µM, time upper 15 min
[15] = Chemical reactivity of compound to NAL in PBS at pH 7.4 by UV spectrometric assay; assay type: physicochemical; details: buffer
CYP3A4 [16] = molecular target: T1, CYP3A4; test: Inhibition of CYP3A4 (unknown origin) at 50 uM incubated for 15 mins by LC-MS/MS analysis; assay type: ADME
CYP2C19 = CYP2C19 (Homo sapiens, UniProt P33261); test: Inhibition of human CYP2C19 assessed as remaining activity at 50 uM using omeprazole as substrate preincubated for 3 mins followed by substrate addition and measured upto 15 mins by LC-MS/MS analysis; assay type: ADME; details: probe omeprazole, time < 18 min, read-out: Activity
CYP2C19, sequence (P33261 whole entry): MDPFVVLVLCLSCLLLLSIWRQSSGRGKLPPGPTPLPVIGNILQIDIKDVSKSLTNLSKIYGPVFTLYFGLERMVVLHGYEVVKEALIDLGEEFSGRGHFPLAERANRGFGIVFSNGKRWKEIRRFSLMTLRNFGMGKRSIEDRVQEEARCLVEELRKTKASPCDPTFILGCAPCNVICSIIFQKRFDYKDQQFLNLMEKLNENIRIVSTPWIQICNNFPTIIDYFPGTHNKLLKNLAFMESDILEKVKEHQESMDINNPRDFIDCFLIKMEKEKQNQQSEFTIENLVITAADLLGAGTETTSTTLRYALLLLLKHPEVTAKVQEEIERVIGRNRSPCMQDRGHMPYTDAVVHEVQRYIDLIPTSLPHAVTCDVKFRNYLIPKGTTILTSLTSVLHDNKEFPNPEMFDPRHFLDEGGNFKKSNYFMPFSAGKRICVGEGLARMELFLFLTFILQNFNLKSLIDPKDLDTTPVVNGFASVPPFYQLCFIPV

CYP2A6 = molecular target: T5, CYP2A6 (Homo sapiens, UniProt P11509); test: Inhibition of human CYP2A6 assessed as remaining activity at 50 uM using coumarin as substrate preincubated for 3 mins followed by substrate addition and measured upto 15 mins by LC-MS/MS analysis; assay type: ADME; details: probe coumarin, time < 18 min, read-out: Activity
T5 sequence (P11509 whole entry): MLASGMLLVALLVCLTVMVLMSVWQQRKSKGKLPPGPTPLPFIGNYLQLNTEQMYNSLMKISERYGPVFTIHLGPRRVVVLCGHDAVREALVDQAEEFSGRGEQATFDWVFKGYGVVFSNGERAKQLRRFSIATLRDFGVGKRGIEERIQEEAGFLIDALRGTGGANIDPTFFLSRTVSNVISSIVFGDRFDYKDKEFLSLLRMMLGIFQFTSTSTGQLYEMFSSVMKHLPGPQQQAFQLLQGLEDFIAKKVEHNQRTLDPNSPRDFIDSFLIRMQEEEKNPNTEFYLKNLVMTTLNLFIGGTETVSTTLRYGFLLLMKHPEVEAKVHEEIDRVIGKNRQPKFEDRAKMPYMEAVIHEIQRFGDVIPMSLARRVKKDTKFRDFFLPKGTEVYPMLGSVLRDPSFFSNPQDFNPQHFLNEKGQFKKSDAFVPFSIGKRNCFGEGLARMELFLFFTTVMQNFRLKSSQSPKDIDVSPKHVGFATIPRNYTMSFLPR

CYP3A4 [17] = molecular target: T1, CYP3A4; test: Inhibition of CYP3A4 (unknown origin) assessed as remaining activity at 50 uM incubated for 15 mins (reference value: 85 +/- 3.4%); assay type: ADME; details: read-out: Activity
CYP3A4 [18] = molecular target: T1, CYP3A4; test: Inhibition of CYP3A4 (unknown origin) assessed as residual activity at 50 uM incubated for 5 to 15 mins in presence of ketoconazole; assay type: ADME; details: with ketoconazole, time 5-15 min, read-out: Activity
Cytochrome P450 3A4 [19] = molecular target: T3, Cytochrome P450 3A4; test: Time dependent inhibition of CYP3A4 (unknown origin) at 50 uM measured after 5 to 15 mins; assay type: ADME; details: time 5-15 min
Cytochrome P450 3A4 [20] = molecular target: T3, Cytochrome P450 3A4; test: Time dependent inhibition of CYP3A4 (unknown origin) at 50 uM measured after 5 to 15 mins in presence of NADPH; assay type: ADME; details: time 5-15 min

T1 sequence (P08684 whole entry): as the sequence (P08684 whole entry) above

SMILES: COc1ccc2c(c[n+](C)c3c4cc5c(cc4ccc23)OCO5)c1OC.[Cl-] [CHELERYTHRINE CHLORIDE]
- activity at 0 min, 50 µM (CYP3A4 [1]): 70.7%
- activity at 0.25 h, 50 µM (CYP3A4 [2]): 43.8%
- activity at 0.25 h, 50 µM (CYP2B6): > 50%
- activity at 0.25 h, 50 µM (CYP3A4 [3]): 25.1%
- inhibition (INH) (Cytochrome P450 3A4 [4]): Active
- inhibition (INH) (Cytochrome P450 3A4 [5]): Tde
- activity at 0.25 h, 50 µM (CYP3A4 [6]): 26.3%
- activity at 0.25 h, 50 µM (CYP2E1): > 50%
- Drug metabolism [7]: Metabolite_Notdetected
- activity at 0.25 h, 50 µM (CYP3A4 [8]): 49.9%
- activity at 0.25 h, 50 µM (CYP1A2): > 50%
- activity at 0.25 h, 50 µM (CYP2D6): > 50%
- inhibition (INH) (Cytochrome P450 3A4 [9]): Active
- activity at 0.25 h, 50 µM (CYP3A5): > 50%
- activity at 0.25 h, 50 µM (CYP2C9): > 50%
- inhibition (INH) (Cytochrome P450 3A4 [10]): Not Active
- Drug metabolism [11]: Metabolite_Detected
- activity at 0.25 h, 50 µM (CYP3A4 [12]): 85.9%
- inhibition (INH) (Cytochrome P450 3A4 [13]): Active
- inhibition (INH) (Cytochrome P450 3A4 [14]): Dose-Dependent Effect
- Drug metabolism [15]: Metabolite_Notdetected
- inhibition at 0.25 h, 50 µM (CYP3A4 [16]): 75%
- activity at 0.25 h, 50 µM (CYP2C19): > 50%
- activity at 0.25 h, 50 µM (CYP2A6): > 50%
- activity at 0.25 h, 50 µM (CYP3A4 [17]): 26%
- activity at 50 µM (CYP3A4 [18]): 50%

SMILES: COc1ccc2c(c1OC)CN(C)c1c-2ccc2cc3c(cc12)OCO3 [DIHYDROCHELERYTHRINE]
- TDI (Cytochrome P450 3A4 [19]): Not Active

SMILES: COc1cc2c[n+](C)c3c4cc5c(cc4ccc3c2cc1OC)OCO5.[Cl-] [NITIDINE CHLORIDE]
- Drug metabolism [7]: Metabolite_Notdetected
- Drug metabolism [11]: Metabolite_Notdetected
- TDI (Cytochrome P450 3A4 [20]): Active
- Drug metabolism [15]: Metabolite_Notdetected
